Experimental data as given in patent publication US20040259135A1, “Biosynthetic labeling and separation of RNA” (priority 2003, published 2004).

Experiments:
[1] = system: human foreskin fibroblast cells; experiment: Growth of human foreskin fibroblast host cells in media containing 2,4-dithiouracil; assay type: cell-based; details: 5 μM to 2 mM 2,4-dithiouracil, even at highest concentration (2 mM)
Experimental: (§1) Methods and Results: Initial experiments assayed the growth of T gondii within human foreskin fibroblast cells in media containing a range of concentrations of 2,4-dithiouracil (5 μM to 2 mM). Equivalent numbers of parasites were used to infect host cells and the replication of the parasites in the different concentrations of 2,4-dithiouracil was monitored over time.

Toxoplasma RNA = experiment: Incorporation of thiouracil into Toxoplasma RNA (HPDP-biotin labeling, northern blot probed with streptavidin-HRP); assay type: cell-based, Toxoplasma gondii; details: 6 hours
Experimental: (§2) To test for the incorporation of thiouracil into RNA, wild type (WT) parasites and mutants that lack the UPRT enzyme (UPRT(−)) were used to infect human foreskin fibroblasts in culture after which, the normal medium was replaced with medium containing 2 mM 2,4-dithiouracil. Following growth in this medium for 6 hours, the infected cells were harvested and RNA prepared by standard methods using Trizol reagent from Gibco-BRL.
(§3) The resulting RNA was incubated with HPDP-biotin (EZ-Link Biotin-HPDP (N-(6-(Biotinamido)hexyl)-3′-(2′-pyridyidithio)-propionamide) from Pierce Biotechnology) which specifically reacts with free thiols which are normally not present in RNA. For both RNA samples (WT and UPRT(−)) 25 μg of RNA was incubated with 50 μl of a 1 mg/ml Biotin-HPDP solution and Tris HCl/EDTA buffer (pH 7.4) for 1.5 hours. Biotinylated RNA was precipitated from any excess biotin by isopropanol precipitation and centrifugation. Approximately 2.5 μg of this material was resolved by agarose gel electrophoresis and transferred to a nitrocellulose filter, all by standard procedures. The resulting filter was then probed with streptavidin conjugated to horseradish peroxidase (Streptavidin-HRP) and the bound material detected with chemiluminescence (using the ECL kit from Amersham). […] The upper-most major band is from the large subunit of the human ribosome.

[2] = biological target: UPRT of the protozoan Toxoplasma gondii (Toxoplasma gondii, UniProt Q26998); details: purified enzyme; 100 different compounds tested in previous studies; cited from earlier work
T gondii = experiment: Growth of T gondii within human foreskin fibroblast cells in media containing 2,4-dithiouracil; assay type: cell-based, Toxoplasma gondii; details: 5 μM to 2 mM 2,4-dithiouracil, even at highest concentration (2 mM); replication monitored over time
Experimental: as §1

HeLa cells = experiment: Incorporation of thiouracil into RNA of HeLa cells with or without the Toxoplasma UPRT gene (northern blot); assay type: cell-based, human; details: 6 hours
Source text: Methods and Results: The coding region of the Toxoplasma UPRT gene was incorporated into the retroviral vector known as LNCX (Miller & Rosman (1989) BioTechniques 7:980-990), placing the UPRT gene under control of the cytomegalovirus immediate-early promoter. This construct was introduced into HeLa cells and cell lines that had stably incorporated the vector were selected using neomycin. Cells that survived this selection and non-transfected HeLa cells were both grown in the presence of 2,4-dithiouracil for 6 hours. RNA was isolated from these cells and labeled with HPDP-biotin as described above. Incorporation of thiouracil was detected by northern blot as described above.

human RNA = experiment: Incorporation of thiouracil into RNA of human foreskin fibroblast host cells (HPDP-biotin, streptavidin-HRP northern blot); assay type: cell-based; details: Toxoplasma-infected human foreskin fibroblasts, 2 mM, 6 hours
Experimental: as §2, §3

UPRT of the protozoan Toxoplasma gondii, sequence (Q26998 whole entry): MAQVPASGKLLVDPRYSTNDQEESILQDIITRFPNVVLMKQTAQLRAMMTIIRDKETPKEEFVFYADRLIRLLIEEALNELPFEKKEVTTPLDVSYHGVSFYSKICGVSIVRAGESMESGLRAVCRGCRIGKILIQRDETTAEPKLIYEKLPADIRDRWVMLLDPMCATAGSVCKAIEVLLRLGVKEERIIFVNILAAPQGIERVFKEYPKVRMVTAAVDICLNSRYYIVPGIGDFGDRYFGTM

## Sc1ccnc(S)n1 [2,4-dithiouracil]
[1]
  growth defects of the human cells: No growth defects
Toxoplasma RNA; WT versus mutants that lack the UPRT enzyme (UPRT(−)), 2 mM
  incorporation of thiouracil into Toxoplasma RNA, UPRT dependence: only in parasites with the UPRT enzyme
Toxoplasma RNA; wild type parasites in human foreskin fibroblasts, 2 mM 2,4-dithiouracil
  incorporation of thiouracil into Toxoplasma ribosomal RNA: two of the three major bands detectable by ethidium staining of the RNA have thiouracil incorporated into them
[2]
  substrate of purified UPRT (conversion into nucleoside monophosphate): converted into UMP
T gondii
  growth defects of the parasites: No growth defects
HeLa cells; HeLa cells that had received the Toxoplasma UPRT gene
  incorporation of thiouracil into RNA: good incorporation at a level similar to that seen with the parasites
HeLa cells; normal (non-transfected) HeLa cells
  incorporation of thiouracil into RNA: lack the ability to incorporate the thiouracil
Human RNA
  incorporation into human RNA: not incorporated

## O=c1[nH]cc(F)c(=O)[nH]1 [5-fluorouracil]
[2]
  substrate of purified UPRT (conversion into nucleoside monophosphate): known toxic substrates

## O=c1c[n+]([O-])cc[nH]1 [emimycin]
[2]
  substrate of purified UPRT (conversion into nucleoside monophosphate): known toxic substrates
